Paper PMC6021367, “Regulated intratumoral expression of IL-12 using a RheoSwitch Therapeutic System® (RTS®) gene switch as gene therapy for the treatment of glioma” (Cancer Gene Therapy, 2018)

Columns and labels:
GL-261 glioma = experiment: Survival in syngeneic mouse GL-261 orthotopic glioma model; format: in vivo, C57BL/6 mice; conditions: temozolomide 300 mg/m^2 qdx5, anti-PD-1 15 mg/m^2 q4dx5
Procedure: At 5 days prior to treatment initiation, female C57BL/6 (C57BL/6NHsd) mice 6–7 weeks old (Envigo; Indianapolis, IN) were inoculated intracranially with 3 µL of GL-261 murine glioblastoma tumor cells at 1 × 10^5 cells/mouse. Implant coordinates were 1 mm anterior and 2 mm lateral to the bregma, at a depth of 3 mm. Buprenorphine (Reckitt Benckiser Healthcare; UK) was administered to the mice approximately 30 min prior to surgery. After 5 days, mice were randomized into one of the treatment groups. For those mice administered Ad-RTS-mIL-12, the vector was administered through the same bur hole at the coordinates above in a constant volume of 3–5 μL. Veledimex was administered via oral gavage once daily for 14 consecutive days.
(§1) All values are expressed as the mean ± standard error of the mean. Statistical analysis was performed using a one-way analysis of variance with Dunnets post hoc test to compare differences between the groups versus control. Increased survival fractions were studied using Kaplan–Meier survival plot followed with a log-rank and Gehan–Wilcoxon tests to assess the significance of the differences. All statistical analyses were performed using GraphPrism 5 (GraphPad Software, Inc., CA, USA). Differences between groups were considered significant when P < 0.05. Pharmacokinetics and tissue levels of veledimex was determined using non-compartmental analysis module of the pharmacokinetic software Phoenix 64 WinNonlin.
In this model, each C57BL/6 mouse received 1 × 10^5 GL-261 glioma cells via intracranial injection ~2 mm distal to the intersection of the coronal and sagittal suture. On day 5, the animals were randomly assigned to one of the treatment groups. Animals were monitored for survival.
1 × 10^5 GL-261 glioma cells were administered into the brain. Separate groups of 12 C57BL/6 mice each were randomly assigned to one of the treatment groups. On day 1 animals were administered 1 × 10^5 GL-261 glioma cells intracranially. On day 5, Ad-RTS-mIL-12 at 5 × 10^9 vp+veledimex PO at 1–30 mg/m^2/day PO was administered for 14 consecutive days and the time to disease progression and death was studied. […] All values are expressed as the mean for >12 animals per group.

[1] = Plasma, CSF and brain pharmacokinetics of veledimex in mouse; format: in vivo, C57BL/6 mice
Procedure: (§2) Brain tumor, plasma and cerebrospinal fluid (CSF) samples were analyzed for veledimex using liquid chromatography/tandem mass spectrometry method. Brain tumor samples were homogenized in homogenization solution (10:90/v:v/acetonitrile:0.1% Tween 80 in water) with ratio of 1 g to 9 mL and proteins precipitated. Veledimex concentrations were calculated with a Quadratic 1/x concentration weighting linear regression over concentration ranges of 0.0500 to 50 ng/mL using deuterated (D3) veledimex as an internal standard.
as §1
Veledimex was administered to separate groups of C57BL/6 mice at a single dose via oral gavage (PO) at 225 mg/m^2. Terminal blood and CSF and brain samples were collected at 1, 2, 4, 6, 24 and 48 h post dose.

[2] = Plasma and CSF pharmacokinetics of veledimex in cynomolgus monkey; format: in vivo; conditions: cynomolgus monkeys
Procedure: as §2, §1
A single oral dose of veledimex at 120 mg was administered to six cynomolgus monkeys (3/gender) and plasma and CSF levels were assessed through 48 h post treatment. Since no gender-related differences were observed, the data from male and female animals were pooled.

[3] = Brain veledimex level in in vivo mechanistic study (increasing vector dose, fixed veledimex dose); design: species or system C57BL/6 mice; conditions: mean ± SEM
Procedure: as §2
In this study mice were administered Ad-RTS-mIL-12 1 × 10^8 to 5 × 10^9 vp intracranial at the coordinates stated above with veledimex administered gavage at a fixed dose of 100 mg/m^2/day PO, and brain veledimex, viral copy number and the ability to turn on the switch to elicit local production of IL-12 mRNA and IL-12 protein expressions were assessed. […] The 5 × 10^9 vp dose was chosen for all subsequent studies.

[4] = C57BL/6 mice, single oral dose 225 mg/m^2, CSF
[5] = C57BL/6 mice, single oral dose 225 mg/m^2, brain

Cn1nnc2c(C(N)=O)ncn2c1=O [temozolomide]
median survival (GL-261 glioma; bevacizumab 30 mg/m^2 biwk ×3): 33 days | animals surviving to terminal killing (GL-261 glioma; bevacizumab 30 mg/m^2 biwk ×3, day 85): 14% | tumor at terminal killing (GL-261 glioma): all mice having tumor present

CCC[C@@H](N(NC(=O)c1cccc(OC)c1CC)C(=O)c1cc(C)cc(C)c1)C(C)(C)C [veledimex]
Cmax and AUC0-t ratio between CSF and plasma ([1]; C57BL/6 mice, single oral dose 225 mg/m^2): 0.34% | CSF AUC0-t [1, 4]: 466 ng·h/mL | CSF Cmax [1, 4]: 14 ng/mL | AUC0-t in the brain [1, 5]: 25325 ng·h/mL | Cmax in the brain [1, 5]: 1794 ng/mL | Cmax in plasma ([1]; C57BL/6 mice, single oral dose 225 mg/m^2, plasma): 4153 ng/mL | Blood–brain barrier crossing ([1]; mice, orally administered): crosses the blood–brain barrier | Blood–brain barrier crossing ([2]; orally administered): crosses the blood–brain barrier | AUC0-t ratio between CSF and plasma ([2]; single oral dose 120 mg): 0.7 ± 0.2 | veledimex brain uptake ([2]; single oral dose 120 mg): ~ 1% | AUC0-t in CSF ([2]; single oral dose 120 mg, CSF): 42.5 ± 17.4 ng·h/mL | Cmax in CSF ([2]; single oral dose 120 mg, CSF): 2.07 ± 0.91 ng/mL | AUC0-t in plasma ([2]; single oral dose 120 mg, plasma): 5887 ± 2203 ng·h/mL | Cmax in plasma ([2]; single oral dose 120 mg, plasma, males and females pooled): 327 ± 142 ng/mL | mean plasma Tmax ([2]; single oral dose 120 mg, post dose): ~ 4 h | Brain veledimex Cmax ([3]; veledimex 100 mg/m^2/day PO + Ad-RTS-mIL-12 1 × 10^8 vp intracranial): 515 ± 53 ng/g | Brain veledimex Cmax ([3]; veledimex 100 mg/m^2/day PO + Ad-RTS-mIL-12 1 × 10^9 vp intracranial): 311 ± 99 ng/g | Brain veledimex Cmax ([3]; veledimex 100 mg/m^2/day PO + Ad-RTS-mIL-12 5 × 10^9 vp intracranial): 378 ± 68 ng/g

Bevacizumab
median survival (GL-261 glioma; bevacizumab 30 mg/m^2 biwk ×3): 20 days
